Source: ChEMBL document CHEMBL5029145, “Discovery of AZD8154, a Dual PI3Kγδ Inhibitor for the Treatment of Asthma” (J Med Chem, 2021)

Assays:
[1] = biological target: Phosphatidylinositol 4,5-bisphosphate 3-kinase catalytic subunit gamma isoform (Homo sapiens, UniProt P48736); test: Inhibition of recombinant human PI3Kgamma assessed as reduction in ADP production using Dic8-PIP2 as substrate pre-treated for 15 mins followed by substrate addition measured after 60 mins by ADP-glo assay
[2] = biological target: T1, Phosphatidylinositol 4,5-bisphosphate 3-kinase catalytic subunit delta isoform (Homo sapiens, UniProt O00329); test: Inhibition of recombinant human PI3Kdelta assessed as reduction in ADP production using Dic8-PIP2 as substrate pre-treated for 15 mins followed by substrate addition measured after 60 mins by ADP-glo assay
T1 sequence (O00329 whole entry): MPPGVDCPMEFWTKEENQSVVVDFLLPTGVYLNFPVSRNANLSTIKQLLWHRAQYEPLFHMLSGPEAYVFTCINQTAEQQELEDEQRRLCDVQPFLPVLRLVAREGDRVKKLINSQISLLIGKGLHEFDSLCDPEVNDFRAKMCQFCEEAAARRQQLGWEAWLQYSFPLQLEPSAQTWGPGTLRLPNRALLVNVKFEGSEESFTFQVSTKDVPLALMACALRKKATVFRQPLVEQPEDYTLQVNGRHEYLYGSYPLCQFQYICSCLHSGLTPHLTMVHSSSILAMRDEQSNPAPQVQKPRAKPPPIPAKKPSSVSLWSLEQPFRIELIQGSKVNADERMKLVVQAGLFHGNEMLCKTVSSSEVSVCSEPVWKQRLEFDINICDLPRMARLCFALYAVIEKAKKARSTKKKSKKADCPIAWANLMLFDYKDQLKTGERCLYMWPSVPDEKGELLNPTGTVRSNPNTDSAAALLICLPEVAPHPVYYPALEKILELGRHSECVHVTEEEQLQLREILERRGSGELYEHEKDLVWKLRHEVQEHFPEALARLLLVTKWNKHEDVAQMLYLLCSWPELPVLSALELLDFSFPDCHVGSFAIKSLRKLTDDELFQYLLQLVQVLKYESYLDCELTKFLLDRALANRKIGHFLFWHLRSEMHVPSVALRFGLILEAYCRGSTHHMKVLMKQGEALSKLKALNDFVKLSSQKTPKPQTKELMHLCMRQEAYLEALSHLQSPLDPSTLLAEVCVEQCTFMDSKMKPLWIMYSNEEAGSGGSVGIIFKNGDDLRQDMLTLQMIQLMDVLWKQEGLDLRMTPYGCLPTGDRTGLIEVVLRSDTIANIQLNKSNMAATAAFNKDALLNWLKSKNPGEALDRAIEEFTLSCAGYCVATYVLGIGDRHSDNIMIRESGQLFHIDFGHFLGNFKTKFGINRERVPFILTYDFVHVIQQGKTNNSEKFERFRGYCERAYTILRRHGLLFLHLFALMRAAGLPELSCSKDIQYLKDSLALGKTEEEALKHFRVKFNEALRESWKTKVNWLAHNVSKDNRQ

[3] = biological target: Phosphatidylinositol 4,5-bisphosphate 3-kinase catalytic subunit gamma isoform (Mus musculus, UniProt Q9JHG7); test: Inhibition of PI3Kgamma in C5a-stimulated mouse RAW 264 cells assessed as inhibition of AKT phosphorylation at Ser473 residue Pretreated for 15 mins followed by C5a stimulation measured after 3 mins by HTRF assay; format: cell-based
[4] = biological target: T1, Phosphatidylinositol 4,5-bisphosphate 3-kinase catalytic subunit delta isoform; test: Inhibition of PI3Kdelta in anti-IgM-stimulated human JeKo-1 cells assessed as inhibition of AKT phosphorylation at Ser473 residue incubated for 60 mins by TR-FRET assay
[5] = biological target: Phosphatidylinositol 4,5-bisphosphate 3-kinase catalytic subunit alpha isoform (Homo sapiens, UniProt P42336); test: Inhibition of recombinant human PI3Kalpha assessed as reduction in ADP production using Dic8-PIP2 as substrate pre-treated for 15 mins followed by substrate addition measured after 60 mins by ADP-glo assay
Phosphatidylinositol 4,5-bisphosphate 3-kinase catalytic subunit alpha isoform, sequence (P42336 whole entry, canonical isoform): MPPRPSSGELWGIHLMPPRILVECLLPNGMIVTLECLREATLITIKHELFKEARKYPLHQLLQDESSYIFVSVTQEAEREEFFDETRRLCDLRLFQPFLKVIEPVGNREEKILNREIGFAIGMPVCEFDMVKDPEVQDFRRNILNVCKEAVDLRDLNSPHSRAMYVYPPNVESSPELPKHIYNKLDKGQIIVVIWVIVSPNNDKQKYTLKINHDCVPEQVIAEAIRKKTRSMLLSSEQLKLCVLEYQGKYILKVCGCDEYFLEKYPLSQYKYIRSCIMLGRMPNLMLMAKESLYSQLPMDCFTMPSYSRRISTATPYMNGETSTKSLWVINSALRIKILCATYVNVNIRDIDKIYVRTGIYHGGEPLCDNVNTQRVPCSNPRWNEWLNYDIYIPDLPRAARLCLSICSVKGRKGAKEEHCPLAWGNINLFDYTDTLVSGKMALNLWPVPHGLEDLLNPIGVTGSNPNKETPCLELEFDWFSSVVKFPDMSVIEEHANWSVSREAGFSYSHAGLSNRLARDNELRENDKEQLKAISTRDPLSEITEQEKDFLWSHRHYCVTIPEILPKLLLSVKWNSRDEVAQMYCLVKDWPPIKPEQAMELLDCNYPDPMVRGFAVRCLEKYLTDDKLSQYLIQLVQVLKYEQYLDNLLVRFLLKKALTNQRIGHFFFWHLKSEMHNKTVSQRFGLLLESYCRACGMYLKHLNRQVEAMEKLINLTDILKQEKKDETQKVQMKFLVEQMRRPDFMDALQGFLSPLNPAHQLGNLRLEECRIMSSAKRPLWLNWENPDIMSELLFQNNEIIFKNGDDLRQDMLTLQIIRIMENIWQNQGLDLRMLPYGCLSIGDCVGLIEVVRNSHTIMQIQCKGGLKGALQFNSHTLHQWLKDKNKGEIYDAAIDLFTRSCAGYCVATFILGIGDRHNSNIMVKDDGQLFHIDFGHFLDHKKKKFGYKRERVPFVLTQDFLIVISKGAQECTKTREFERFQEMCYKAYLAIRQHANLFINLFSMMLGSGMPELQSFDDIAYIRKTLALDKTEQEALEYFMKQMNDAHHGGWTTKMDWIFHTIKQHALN

Phosphatidylinositol 4,5-bisphosphate 3-kinase catalytic subunit gamma isoform (Homo sapiens, UniProt P48736), sequence (P48736 whole entry, canonical isoform): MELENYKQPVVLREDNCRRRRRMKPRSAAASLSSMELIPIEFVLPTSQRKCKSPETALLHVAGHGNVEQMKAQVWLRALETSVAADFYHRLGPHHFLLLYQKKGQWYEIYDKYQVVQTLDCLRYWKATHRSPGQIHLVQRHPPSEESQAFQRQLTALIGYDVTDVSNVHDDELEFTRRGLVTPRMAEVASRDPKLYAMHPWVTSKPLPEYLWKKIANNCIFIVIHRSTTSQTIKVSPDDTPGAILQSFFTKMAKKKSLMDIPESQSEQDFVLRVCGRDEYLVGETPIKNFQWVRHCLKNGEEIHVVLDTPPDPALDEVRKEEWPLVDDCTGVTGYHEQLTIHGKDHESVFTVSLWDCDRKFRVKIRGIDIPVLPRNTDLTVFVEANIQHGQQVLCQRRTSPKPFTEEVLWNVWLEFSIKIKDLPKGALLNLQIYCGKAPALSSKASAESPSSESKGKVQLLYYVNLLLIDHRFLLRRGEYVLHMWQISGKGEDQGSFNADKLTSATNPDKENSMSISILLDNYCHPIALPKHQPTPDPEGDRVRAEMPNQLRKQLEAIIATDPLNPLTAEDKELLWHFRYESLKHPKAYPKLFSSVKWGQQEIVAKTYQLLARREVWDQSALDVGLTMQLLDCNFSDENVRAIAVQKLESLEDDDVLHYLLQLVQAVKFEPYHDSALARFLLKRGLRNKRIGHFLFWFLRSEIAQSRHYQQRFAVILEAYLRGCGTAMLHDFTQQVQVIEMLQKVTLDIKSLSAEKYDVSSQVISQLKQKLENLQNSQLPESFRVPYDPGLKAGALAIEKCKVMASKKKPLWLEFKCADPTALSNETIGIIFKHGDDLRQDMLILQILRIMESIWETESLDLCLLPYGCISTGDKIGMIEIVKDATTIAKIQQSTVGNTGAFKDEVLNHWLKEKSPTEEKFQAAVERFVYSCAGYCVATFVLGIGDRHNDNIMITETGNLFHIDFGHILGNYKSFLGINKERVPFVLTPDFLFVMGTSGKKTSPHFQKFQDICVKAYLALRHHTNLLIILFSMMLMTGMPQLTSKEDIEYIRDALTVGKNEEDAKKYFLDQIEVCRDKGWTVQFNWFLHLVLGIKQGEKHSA
Phosphatidylinositol 4,5-bisphosphate 3-kinase catalytic subunit gamma isoform (Mus musculus, UniProt Q9JHG7), sequence (Q9JHG7 whole entry, canonical isoform): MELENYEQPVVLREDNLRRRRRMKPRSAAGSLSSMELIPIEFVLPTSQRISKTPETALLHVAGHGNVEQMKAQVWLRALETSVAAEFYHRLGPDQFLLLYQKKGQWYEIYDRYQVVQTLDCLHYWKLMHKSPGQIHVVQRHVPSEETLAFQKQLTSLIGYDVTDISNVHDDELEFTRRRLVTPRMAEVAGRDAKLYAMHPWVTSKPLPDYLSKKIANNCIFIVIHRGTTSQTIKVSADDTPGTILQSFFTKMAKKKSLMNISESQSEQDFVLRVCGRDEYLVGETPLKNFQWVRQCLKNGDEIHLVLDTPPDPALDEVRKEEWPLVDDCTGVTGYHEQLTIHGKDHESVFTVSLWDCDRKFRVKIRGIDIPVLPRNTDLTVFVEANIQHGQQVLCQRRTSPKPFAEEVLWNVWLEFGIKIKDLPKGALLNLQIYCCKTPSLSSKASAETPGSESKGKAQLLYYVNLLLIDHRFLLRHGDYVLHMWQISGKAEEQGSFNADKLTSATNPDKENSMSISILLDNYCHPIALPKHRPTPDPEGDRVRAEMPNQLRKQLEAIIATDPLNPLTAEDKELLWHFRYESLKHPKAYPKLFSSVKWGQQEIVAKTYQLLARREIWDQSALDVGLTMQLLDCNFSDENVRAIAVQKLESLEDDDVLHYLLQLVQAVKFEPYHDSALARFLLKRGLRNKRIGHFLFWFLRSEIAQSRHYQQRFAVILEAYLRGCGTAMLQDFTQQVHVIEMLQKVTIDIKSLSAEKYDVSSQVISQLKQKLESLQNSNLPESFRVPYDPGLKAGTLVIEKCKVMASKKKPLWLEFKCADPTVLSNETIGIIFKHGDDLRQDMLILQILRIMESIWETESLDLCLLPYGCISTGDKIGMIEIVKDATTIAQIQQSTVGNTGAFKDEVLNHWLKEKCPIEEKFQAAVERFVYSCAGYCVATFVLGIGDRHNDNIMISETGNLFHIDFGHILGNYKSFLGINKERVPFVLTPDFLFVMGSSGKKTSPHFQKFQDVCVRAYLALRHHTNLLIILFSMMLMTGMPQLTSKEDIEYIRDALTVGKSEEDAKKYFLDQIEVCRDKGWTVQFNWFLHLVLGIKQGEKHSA

| Structure (SMILES) | IC50 [1] | IC50 [2] | IC50 [3] | IC50 [4] | IC50 [5] |
| --- | --- | --- | --- | --- | --- |
| Cc1nc2sc1-c1cc3c(c(c1)S(=O)(=O)Nc1ccc(cc1)CN(C)CCCCNC(=O)c1cccc(n1)N2)C(=O)N([C@@H](C)C1CC1)C3 | 10 nM | 1 nM | 5.01 nM | 1 nM | – |
| CC(=O)Nc1nc(C)c(-c2cc3c(c(S(=O)(=O)Nc4cccc(CN(C)C)c4)c2)C(=O)N([C@@H](C)C2CC2)C3)s1 | 2 nM | 15.8 nM | – | – | – |
| CC(=O)Nc1nc(C)c(-c2cc3c(c(S(=O)(=O)Nc4ccccc4)c2)C(=O)N([C@@H](C)C2CC2)C3)s1 | 1 nM | 50.1 nM | – | – | – |
| Cc1nc2sc1-c1cc3c(c(c1)S(=O)(=O)Nc1ccc(cc1)CN(C)CCCNC(=O)c1cccc(n1)N2)C(=O)N([C@@H](C)C1CC1)C3 | 7.94 nM | 0.794 nM | 3.98 nM | 1.58 nM | – |
| CC(=O)Nc1cccc(Nc2nc(C)c(-c3cc4c(c(S(C)(=O)=O)c3)C(=O)N([C@@H](C)C3CC3)C4)s2)n1 | 1 nM | 15.8 nM | – | – | – |
| CC(=O)Nc1nc(C)c(-c2cc3c(c(S(=O)(=O)Nc4ccc(CN(C)C)cc4)c2)C(=O)N([C@@H](C)C2CC2)C3)s1 | 2.51 nM | 6.31 nM | – | 50.1 nM | – |
| Cc1nc(Nc2cccc(N3CCN(C)C3=O)n2)sc1-c1cc2c(c(S(C)(=O)=O)c1)C(=O)N([C@@H](C)C1CC1)C2 | – | 0.794 nM | 1 nM | 3.98 nM | 39.8 nM |
| Cc1nc2sc1-c1cc3c(c(c1)S(=O)(=O)NCCCCCNC(=O)c1cccc(n1)N2)C(=O)N([C@@H](C)C1CC1)C3 | 1.26 nM | 0.501 nM | 1.58 nM | 1.26 nM | 31.6 nM |
| CNS(=O)(=O)c1cc(-c2sc(Nc3cccc(N4CC[C@@H](O)C4=O)n3)nc2C)cc2c1C(=O)N([C@@H](C)C1CC1)C2 | – | – | 2.51 nM | 3.98 nM | 15.8 nM |
| CNS(=O)(=O)c1cc(-c2sc(Nc3cccc(N(C)C(C)=O)n3)nc2C)cc2c1C(=O)N([C@@H](C)C1CC1)C2 | – | 0.794 nM | 1 nM | 6.31 nM | – |
| CC(=O)Nc1nc(C)c(-c2cc3c(c(S(=O)(=O)Nc4cccc(S(C)(=O)=O)c4)c2)C(=O)N([C@@H](C)C2CC2)C3)s1 | 1.26 nM | 3.16 nM | 15.8 nM | 31.6 nM | – |
| CNS(=O)(=O)c1cc(-c2sc(Nc3cccc(N4CCOCC4=O)n3)nc2C)cc2c1C(=O)N([C@@H](C)C1CC1)C2 | – | 0.631 nM | 0.794 nM | 3.98 nM | 39.8 nM |
| CNS(=O)(=O)c1cc(-c2sc(Nc3cccc(N4C[C@H](O)CC4=O)n3)nc2C)cc2c1C(=O)N([C@@H](C)C1CC1)C2 | – | 1.26 nM | 2 nM | 7.94 nM | – |
| CNS(=O)(=O)c1cc(-c2sc(Nc3ccc(C(=O)NCCCN(C)C)cn3)nc2C)cc2c1C(=O)N([C@@H](C)C1CC1)C2 | 1.26 nM | 6.31 nM | – | – | – |
| Cc1nc2sc1-c1cc3c(c(c1)S(=O)(=O)NCCN(C)CCCNC(=O)c1cccc(n1)N2)C(=O)N([C@@H](C)C1CC1)C3 | 0.794 nM | 0.631 nM | 1 nM | 3.16 nM | 50.1 nM |
| Cc1nc(Nc2cccc(-c3nc(C)n(C)n3)n2)sc1-c1cc2c(c(S(C)(=O)=O)c1)C(=O)N([C@@H](C)C1CC1)C2 | 1 nM | 25.1 nM | – | – | – |
| Cc1nc(Nc2cccc(-c3ocnc3CO)n2)sc1-c1cc2c(c(S(C)(=O)=O)c1)C(=O)N([C@@H](C)C1CC1)C2 | 0.631 nM | 2 nM | – | – | – |
| CC(=O)N(C)c1cccc(Nc2nc(C)c(-c3cc4c(c(S(C)(=O)=O)c3)C(=O)N([C@@H](C)C3CC3)C4)s2)n1 | – | 1.26 nM | – | – | – |
| COCCNC(=O)c1cccc(Nc2nc(C)c(-c3cc4c(c(S(C)(=O)=O)c3)C(=O)N([C@@H](C)C3CC3)C4)s2)n1 | 0.794 nM | 5.01 nM | – | – | – |
| CNS(=O)(=O)c1cc(-c2sc(Nc3cccc(C(=O)NCCCN(C)C)n3)nc2C)cc2c1C(=O)N([C@@H](C)C1CC1)C2 | 3.16 nM | 3.98 nM | – | – | – |

Further lines, results first:

| IC50 [1] | IC50 [2] | IC50 [3] | IC50 [4] | IC50 [5] | Structure (SMILES) |
| --- | --- | --- | --- | --- | --- |
| 1 nM | 1.58 nM | – | – | – | Cc1nc(-c2cccc(Nc3nc(C)c(-c4cc5c(c(S(C)(=O)=O)c4)C(=O)N([C@@H](C)C4CC4)C5)s3)n2)n(C)n1 |
| – | 0.631 nM | 1 nM | 2.51 nM | 20 nM | CNS(=O)(=O)c1cc(-c2sc(Nc3cccc(N4CCCOC4=O)n3)nc2C)cc2c1C(=O)N([C@@H](C)C1CC1)C2 |
| 0.794 nM | 50.1 nM | – | – | – | CC(=O)Nc1nc(C)c(-c2cc3c(c(S(=O)(=O)N(C)c4cccc(C#N)c4)c2)C(=O)N([C@@H](C)C2CC2)C3)s1 |
| – | 1.26 nM | 1.58 nM | 12.6 nM | 31.6 nM | Cc1nc(Nc2cccc(N3CCCCC3=O)n2)sc1-c1cc2c(c(S(C)(=O)=O)c1)C(=O)N([C@@H](C)C1CC1)C2 |
| – | 10 nM | – | 126 nM | – | CC(=O)Nc1nc(C)c(-c2cc3c(c(S(=O)(=O)Nc4cccc(C#N)c4)c2)C(=O)N([C@@H](C)C2CC2)C3)s1 |
| – | 1.58 nM | 1.26 nM | 6.31 nM | 39.8 nM | CNS(=O)(=O)c1cc(-c2sc(Nc3cccc(N4CCN(C)CC4=O)n3)nc2C)cc2c1C(=O)N([C@@H](C)C1CC1)C2 |
| – | – | – | – | 20 nM | CNS(=O)(=O)c1cc(-c2sc(Nc3cccc(N4CCCCC4=O)n3)nc2C)cc2c1C(=O)N([C@@H](C)C1CC1)C2 |
| 1 nM | 50.1 nM | – | – | – | CNS(=O)(=O)c1cc(-c2sc(Nc3cccc(C)n3)nc2C)cc2c1C(=O)N([C@@H](C)C1CC1)C2 |
| 1 nM | 158 nM | – | – | – | CC(=O)Nc1nc(C)c(-c2cc3c(c(S(=O)(=O)Nc4ccc(S(C)(=O)=O)cc4)c2)C(=O)N([C@@H](C)C2CC2)C3)s1 |
| 3.16 nM | 158 nM | – | – | – | CCN(CC)C(=O)c1cccc(Nc2nc(C)c(-c3cc4c(c(S(=O)(=O)NC)c3)C(=O)N([C@@H](C)C3CC3)C4)s2)n1 |
| – | 0.794 nM | 1 nM | 5.01 nM | 126 nM | Cc1nc(Nc2cccc(N3CCCC3=O)n2)sc1-c1cc2c(c(S(=O)(=O)NC3COC3)c1)C(=O)N([C@@H](C)C1CC1)C2 |
| – | – | – | – | 50.1 nM | Cc1nc(Nc2cccc(N3CCOCC3=O)n2)sc1-c1cc2c(c(S(C)(=O)=O)c1)C(=O)N([C@@H](C)C1CC1)C2 |
| – | 0.631 nM | 2 nM | 3.16 nM | 31.6 nM | Cc1nc(Nc2cccc(N3CCNC3=O)n2)sc1-c1cc2c(c(S(=O)(=O)NC3COC3)c1)C(=O)N([C@@H](C)C1CC1)C2 |
| – | 0.794 nM | 3.98 nM | 6.31 nM | 39.8 nM | CNS(=O)(=O)c1cc(-c2sc(Nc3cccc(N4CCNCC4=O)n3)nc2C)cc2c1C(=O)N([C@@H](C)C1CC1)C2 |
| 1 nM | 158 nM | – | – | – | CC(=O)Nc1nc(C)c(-c2cc3c(c(S(=O)(=O)Nc4ccc(C#N)cc4)c2)C(=O)N([C@@H](C)C2CC2)C3)s1 |
| – | 25.1 nM | – | – | – | CC(=O)Nc1nc(C)c(-c2cc3c(c(S(=O)(=O)Nc4cc(C#N)cc(S(C)(=O)=O)c4)c2)C(=O)N([C@@H](C)C2CC2)C3)s1 |
| 2.51 nM | 25.1 nM | – | – | – | CC(=O)Nc1nc(C)c(-c2cc3c(c(S(=O)(=O)N(C)c4ccc(CN(C)C)cc4)c2)C(=O)N([C@@H](C)C2CC2)C3)s1 |
| – | 1.26 nM | 1.26 nM | 3.98 nM | 20 nM | Cc1nc(Nc2cccc(N3CCCOC3=O)n2)sc1-c1cc2c(c(S(C)(=O)=O)c1)C(=O)N([C@@H](C)C1CC1)C2 |
